# Read-outs that look alike come from different tables or passages of the source.
# How the values were obtained:
# HIV BH-10 WT = test: Cell-based assay using BH-10 cells, wild type
# [1] = test system: HIV mutant strain K103N/Y181C; test: Cell-based assay using BH-10 cells, K103N/Y181C mutant
# Protocol: (§1) In a typical embodiment, the NNRTIs display an EC50 in a mutant HIV strain of less than approximately 5, 2.5, 1 or 0.1 μM concentration. The degree of cross-resistance against a drug resistant strain of HIV is measured by assessing the EC50 of the desired oxo-pyrimidine compound in the target mutated, i.e., drug resistant, virus.
# (§2) The degree of cross-resistance against a drug resistant strain of HIV can easily be measured by assessing the EC50 of the desired indole in the target mutated i.e., drug resistant, virus.
# HIV mutant strain Y181C = test: Cell-based assay using BH-10 cells, Y181C mutant
# Protocol: as §1, §2
# [2] = Human immunodeficiency virus 1, read-out: EC50 WT///B, BH-10 cells, wild type
# [3] = Human immunodeficiency virus 1, read-out: EC50 K103N/Y181C, BH-10 cells, K103N/Y181C mutant
# [4] = Human immunodeficiency virus 1, read-out: EC50 Y181C, BH-10 cells, Y181C mutant
SMILES,EC50 (HIV BH-10 WT; [2]),"EC50 [1, 3]",EC50 (HIV mutant strain Y181C; [4]),"EC50 (HIV BH-10 WT; BH-10 cells, wild type, read-out: EC50 WT///B)","EC50 ([1]; BH-10 cells, K103N/Y181C mutant, read-out: EC50 K103N/Y181C)","EC50 (HIV mutant strain Y181C; BH-10 cells, Y181C mutant, read-out: EC50 Y181C)"
COP(=O)(c1cccc(CF)c1)c1c(C(N)=O)[nH]c2ccc(Cl)cc12 (stereo not drawn) [Compound 7h],0.9 nM,2.5 nM,6.1 nM,–,–,–
COP(=O)(c1cc(C)cc(C)c1)c1c(C(=O)NCc2ccc[n+]([O-])c2)[nH]c2ccc(Cl)cc12 (stereo not drawn) [Compound 22b],3.5 nM,3.2 nM,18.7 nM,–,–,–
COP(=O)(c1cc(C)cc(C)c1)c1c(C(=O)NCCc2cc[n+]([O-])cc2)[nH]c2ccc(Cl)cc12 (stereo not drawn) [Compound 22c],2.8 nM,26.8 nM,10.1 nM,–,–,–
COP(=O)(c1ccccc1)c1c(C(=O)N[C@H](C(N)=O)c2ccccc2)[nH]c2ccc(Cl)cc12 (stereo partly drawn) [Compound 18aao],38.1 nM,118 nM,287 nM,–,–,–
COP(=O)(c1cc(C)cc(C)c1)c1c(C(=O)NCc2ccncc2)[nH]c2ccc(Cl)cc12 (stereo not drawn) [Compound 18ax],3 nM,2.3 nM,7.2 nM,–,–,–
COP(=O)(c1cccc2ccccc12)c1c(C(N)=O)[nH]c2ccc(Cl)cc12 (stereo not drawn) [Compound 7t],0.6 nM,2.6 nM,5.7 nM,–,–,–
COP(=O)(c1ccccc1)c1c(C(=O)NCc2cncn2C)[nH]c2ccc(Cl)cc12 (stereo not drawn) [Compound 18as],0.3 nM,0.6 nM,9.9 nM,–,–,–
COP(=S)(c1ccccc1)c1c(C(N)=O)[nH]c2ccc(Cl)cc12 (stereo not drawn) [Compound 25b],0.4 nM,89.9 nM,41.4 nM,–,–,–
COP(=O)(c1cc(C)cc(C)c1)c1c(C(N)=O)[nH]c2ccc(Cl)cc12 (stereo not drawn) [Compound 7a],0.2 nM,1 nM,1.2 nM,–,–,–
COc1cccc(P(=O)(OC)c2c(C(=O)NCc3ccco3)[nH]c3ccc(Cl)cc23)c1 (stereo not drawn) [Compound 18au],0.8 nM,6 nM,3.3 nM,–,–,–
COP(=O)(c1cc(F)cc(C(F)(F)F)c1)c1c(C(N)=O)[nH]c2ccc(Cl)cc12 (stereo not drawn) [Compound 7q],1.1 nM,2.9 nM,16.6 nM,–,–,–
CCOP(=O)(c1cccs1)c1c(C(N)=O)[nH]c2ccc(Cl)cc12 (stereo not drawn) [Compound 51],2.2 nM,65.6 nM,52.9 nM,–,–,–
COP(=O)(c1ccsc1)c1c(C(N)=O)[nH]c2ccc(Cl)cc12 (stereo not drawn) [Compound 52a],0.5 nM,6.3 nM,1.5 nM,–,–,–
COP(=O)(c1cccc(CF)c1)c1c(C(=O)NCc2ccncc2)[nH]c2ccc(Cl)cc12 (stereo not drawn) [Compound 18c],2 nM,4.7 nM,2.9 nM,–,–,–
CCc1cc(C)cc(P(=O)(OC)c2c(C(=O)NCc3ccc[n+]([O-])c3)[nH]c3ccc(Cl)cc23)c1 (stereo not drawn) [Compound 22h],1.6 nM,3.6 nM,5.8 nM,–,–,–
COP(=O)(c1cc(F)cc(F)c1)c1c(C(=O)NCc2cncn2C)[nH]c2ccc(Cl)cc12 (stereo not drawn) [Compound 18aae],2.6 nM,2.7 nM,10.5 nM,–,–,–
COP(=O)(c1cccc(C#N)c1)c1c(C(N)=O)[nH]c2ccc(Cl)cc12 (stereo not drawn) [Compound 7f],0.9 nM,15.3 nM,10.5 nM,–,–,–
COP(=O)(c1cc(C)cc(C)c1)c1c(C(=O)NCc2cc(F)ccc2F)[nH]c2ccc(Cl)cc12 (stereo not drawn) [Compound 18aai],–,–,–,3.6 nM,18.3 nM,15.6 nM
COP(=O)(c1cc(C)cc(C)c1)c1c(C(=O)NCc2cc[n+](C)cc2)[nH]c2ccc(Cl)cc12 (stereo not drawn) [Compound 22l],6.1 nM,77.4 nM,269 nM,–,–,–
COP(=O)(c1cc(C)cc(C)c1)c1c(C(=O)NCc2cnc[n+]([O-])c2)[nH]c2ccc(Cl)cc12 (stereo not drawn) [Compound 22g],2.1 nM,3 nM,10.7 nM,–,–,–
COP(=O)(c1ccc(C)c(C)c1)c1c(C(N)=O)[nH]c2ccc(Cl)cc12 (stereo not drawn) [Compound 7ae],0.5 nM,1.1 nM,11.1 nM,–,–,–
CCOP(=O)(c1cccc(Cl)c1)c1c(C(N)=O)[nH]c2ccc(Cl)cc12 (stereo not drawn) [Compound 6d],1.4 nM,15.8 nM,16.6 nM,–,–,–
COP(=O)(c1cc(C)cc(C)c1)c1c(C(=O)NCc2ccccc2N)[nH]c2ccc(Cl)cc12 (stereo not drawn) [Compound 18n],19.5 nM,23.1 nM,87.8 nM,–,–,–
CCc1ccccc1P(=O)(OC)c1c(C(N)=O)[nH]c2ccc(Cl)cc12 (stereo not drawn) [Compound 7an],2.9 nM,1.3 nM,50.5 nM,–,–,–
COP(=O)(c1cccc(C(C)(C)C)c1)c1c(C(N)=O)[nH]c2ccc(Cl)cc12 (stereo not drawn) [Compound 7ar],2.9 nM,30.6 nM,19.3 nM,–,–,–
